Data reported in US20220040144A1, “COMPOSITIONS AND METHODS FOR THE TREATMENT OF CUTANEOUS T CELL LYMPHOMA (CTCL)” (The State of Israel, Ministry of Agriculture & Rural …, priority 2018, published 2022).

Assays:
MyLa cells = assay: XTT cell viability assay on MyLa cells, with Bliss synergy analysis; details: CBD 7.3 μg/ml, CBG 3.5 μg/ml, THC 0.044 μg/ml, CBC 0.027 μg/ml (as in S4 5 + S5 6 μg/mL), 48 hours
Description: (§1) XTT Cell Viability Assays—Cells were seeded in 96-wells plates at 10,000 cells per well in triplicates in DMEM or RPMI640 growing media. The following day, cells were treated with the different extracts, separated fractions and combinations thereof or pure compounds; or media or solvent only as control. To evaluate involvement of the CB1 and CB2 receptors, 10 μM of AM251 (a CB1 receptor inverse agonist, TOCRIS, 1117/1) or SR144528 (a CB2 receptor inverse agonist, Abcam) were added to the cells 1 hour prior to treatment. Cells were incubated for 48 hours and following XTT (2,3-bis(2-methoxy-4-nitro-5-sulfophenyl)-5-[(phenylamino)-carbonyl]-2H-tetrazolium inner salt) reduction was used to quantify viability according to manufacturer's instruction (BI, Kibbutz Beit-Haemek, Israel). Briefly, cells were incubated with XTT reagent for 2 hours at 37° C. in a humidified 5% CO2, 95% air atmosphere. Absorbance was recorded by a photometer Synergy H1 hybrid reader (BioTek) at 490 nm with 650 nm of reference wavelength. Cells survival was estimated according to the following equation: % cell survival=100×(At−Ac)(treatment)/(At−Ac)(control), where At and Ac are the absorbencies (490 nm) of the XTT colorimetric reaction in treated and control cultures, respectively, minus non-specific absorption measured at 650 nm. Absorbance of medium alone was also deducted from specific readings. […]

HUT78 cells = assay: XTT cell viability assay on HUT78 cells; type: cell-based, human; details: CBD only, concentration equal to that in combined S4+S5 (7.3 μg/ml), 48 hours
Description: as §1

SMILES: C=C(C)[C@@H]1CCC(C)=C[C@H]1c1c(O)cc(CCCCC)cc1O [CBD, cannabidiol]
- cytotoxicity of pure cannabinoids on My-La cells (in words) (MyLa cells): did not induce cell death
- cell death of HuT-78 cells (HUT78 cells): 50%
